Source: patent publication US10973245B2, “Immunomodulatory and growth promoting and controlling composition of intestinal microbiota undesirable bacteria and its use” (YESSINERGY HOLDING S/A, priority 2016, dated 2021)
Marks after values point to notes of the source that are not given here.

Experiments:
[1] = system: sulfite-reducing Clostridium; assay: Sulfite-reducing Clostridium CFU count in cecum fecal material of challenged chickens (Examples 8, 9, 10); type: in vivo; conditions: cecum fecal material at 28 days; colony forming units
Source text: Compositions of examples 8, 9 and 10 were used as growth promoting additives for growing chicken feeds, i.e., during the first 28 days of life, to evaluate the control of Salmonella heidelbergii. On the fourth day of life, 20% of the birds were inoculated with Salmonella heidelbergii. At the end of the 28 days, fecal material was collected from the cecum of the birds and the counting of colony forming units (CFUs) of Salmonella and sulfite-reducing Clostridium.
The treatments were as follows:
T1: Basal Diet+SH Challenge—WITHOUT GPA (growth promoting antibiotic)
T2: Basic Diet+SH+APC Challenge (Enramicima 8 ppm)
T3: Basal Diet+SH Challenge+Sodium Butyrate (1.5 kg/t of feed)
T4: Basal Diet+Composition of the Invention of Example 8—3 kg/t
T5: Basal Diet+Composition of the Invention of Example 9—3 kg/t
T6: Basal Diet+Composition of the Invention of Example 10—3 kg/t
T7: Basal Diet+Composition of the Invention of Example 9—3 kg/t+Probiotic

[2] = Fatty acids in cecum of piglets (Example 4); type: in vivo, PIC genetics
Method: (§1) Composition of Example 4 was tested in piglets to evaluate their performance ratio in comparison with growth promoter antibiotic (GPA) and with sodium butyrate. All were added to the rations of the respective treatments as growth promoting additives.
(§2) Sixty-three piglets were weaned at 22 days of age, with a start average body weight of 5.48 kg, both sexes, PIC genetics. The animals were separated by sex and distributed into 3 treatments, with 7 replicates of 3 animals each, during the whole period (22 to 64 days of age). Diet was formulated without Zinc Oxide or any other antimicrobial.
(§3) T1: Basal Diet+GPA (colistin 8%—40 ppm)
(§4) T2: Basal Diet+Sodium Butyrate 30% (1 kg/t)
(§5) T3: Basal Diet+Composition of the Invention of Example 4 (2 kg/t)

[3] = Diarrhea index in piglets (Example 4); type: in vivo, PIC genetics
Method: as §1, §2, §3, §4, §5

[4] = Piglet performance with growth promoting additives (Example 4); type: in vivo, PIC genetics; conditions: piglets 22 to 64 days of age
Method: as §1, §2, §3, §4, §5

[5] = Growth promoter additives in commercial broiler chicken diets (Examples 2 and 3 vs Zinc Bacitracin); type: in vivo, commercial broiler chickens
Method: (§6) Formulations of examples 2 and 3 were administered to commercial broiler chickens, with an inclusion of 2 kg per ton of feed. The results are shown in Tables 12 (Diets with Zinc Bacitracin Antibiotic, As Growth Promoter Additives), 13 (Diets with the Composition of Example 2, as Growth Promoter Additives) and 14 (Diets with the Composition of Example 3, As Growth Promoter Additive) below.
(§7) Note: (*)—Salmonella Control Efficiency Index, measured by conducting a ‘propé’ [shoe covers] drag swab tests. Antibiotic=100 (**)—Zinc Bacitracin

Salmonella = Salmonella Control Efficiency Index by 'propé' drag swab tests, commercial broiler chickens; type: in vivo; conditions: Antibiotic=100
Method: as §6, §7

Question: Which results are given for CCCC(=O)[O-].[Na+] [Sodium Butyrate]?
Answer: Sulfite-reducing Clostridium [1]: 4959; Fatty acids in Cecum: Acetic [2]: 0.38; Fatty acids in Cecum: Butyric [2]: 0.18; Fatty acids in Cecum: Propionic [2]: 0.32^a; Fatty acids in Cecum: Total [2]: 0.87; Diarrhea index ([3]; Grade I): 22^b; Diarrhea index ([3]; Grade II): 33^ab; Diarrhea index ([3]; Grade III): 53^b; CA = feed conversion [4]: 2.07

Question: With Zinc Bacitracin as the compound, how does the “Feed Conversion” value ([5]; Average of Productions 1-4) read?
Answer: 1.69

Question: What about the “Final Average Body Weight” value ([5]; Average of Productions 1-4) of the same compound?
Answer: 3.11 kgBW/bird

Question: And the “Food Intake” value ([5]; Average of Productions 1-4)?
Answer: 5.159 kg/Bird

Question: And the “Feed Conversion” value ([5]; Production 1)?
Answer: 1.72

Question: And the “Final Average Body Weight” value ([5]; Production 1)?
Answer: 3.14 kgBW/bird

Question: What about the “Food Intake” value ([5]; Production 1) of the same compound?
Answer: 5.329 kg/Bird

Question: And the “Feed Conversion” value ([5]; Production 2)?
Answer: 1.71

Question: What about the “Final Average Body Weight” value ([5]; Production 2) of the same compound?
Answer: 3.07 kgBW/bird

Question: What about the “Food Intake” value ([5]; Production 2) of the same compound?
Answer: 5.167 kg/Bird

Question: What about the “Feed Conversion” value ([5]; Production 3) of the same compound?
Answer: 1.60

Question: What about the “Final Average Body Weight” value ([5]; Production 3) of the same compound?
Answer: 3.20 kgBW/bird

Question: And the “Food Intake” value ([5]; Production 3)?
Answer: 5.034 kg/Bird

Question: And the “Feed Conversion” value ([5]; Production 4)?
Answer: 1.72

Question: And the “Final Average Body Weight” value ([5]; Production 4)?
Answer: 3.01 kgBW/bird

Question: And the “Food Intake” value ([5]; Production 4)?
Answer: 5.105 kg/Bird

Question: And the “Control of Salmonella (Salmonella Control Efficiency Index)” value (Salmonella; Average of Productions 1-4)?
Answer: 100

Question: And the “Control of Salmonella (Salmonella Control Efficiency Index)” value (Salmonella; Production 1)?
Answer: 100

Question: What about the “Control of Salmonella (Salmonella Control Efficiency Index)” value (Salmonella; Production 2) of the same compound?
Answer: 100

Question: And the “Control of Salmonella (Salmonella Control Efficiency Index)” value (Salmonella; Production 3)?
Answer: 100

Question: What about the “Control of Salmonella (Salmonella Control Efficiency Index)” value (Salmonella; Production 4) of the same compound?
Answer: 100
